Assay results taken from patent publication US11384078B2, “5,6-fused-bicyclic compounds and compositions for the treatment of parasitic diseases” (NOVARTIS AG, priority 2017, dated 2022).

How the values were obtained:
Format in all cases: cell-based
[1] = tested on: Trypanosoma brucei brucei (Lister 427) strain; experiment: Assay for growth inhibition against Trypanosoma brucei brucei (Cell TiterGlo ATP luminescence); details: Trypanosoma brucei, T. brucei brucei (Lister 427); read-out: T. Brucei (HAT) EC50
Method in brief: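 T. b. brucei Lister 427 grown in HMI-9 with 10% FBS and 10% serum plus, seeded at 10,000 parasites/mL with 10-point threefold compound dilutions in duplicate, 37 °C for 2 days. Viability read as ATP luminescence 30 min after Cell TiterGlo; IC50 versus untreated controls.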

[2] = tested on: Trypanosoma cruzi amastigotes cultured in 3T3 fibroblast cells; experiment: Assay for growth inhibition of kinetoplastid parasite Trypanosoma cruzi (beta-galactosidase Tulahuen strain, CPRG readout); details: Trypanosoma cruzi, Fibroblast, T. cruzi amastigotes in 3T3 fibroblast cells; read-out: Buckner infectious T. cruzi EC50
Method in brief: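 3T3 fibroblasts (1,000 cells/well) plated overnight, treated with compound in DMSO, then infected with 10,000 Lac-Z-expressing Tulahuen trypomastigotes. After 6 days, 0.6 mM CPRG with 0.6% NP-40 added for 2 h at room temperature; absorbance gives relative intracellular amastigote numbers. Benznidazole and nifurtimox serve as positive controls.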

[3] = tested on: L. donovani HU3 strain in mouse peritoneal macrophages; experiment: Assay for inhibition of parasitemia of Leishmania donovani in mouse macrophages (SYBR Green nuclei count, high-content imaging); details: Leishmania donovani, Peritoneal macrophage, L. donovani in mouse peritoneal macrophages; read-out: L. donovani in Mouse Macrophages EC50
Method in brief: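 Peritoneal macrophages from uninfected BALB/c mice were infected for 24 h with spleen-derived L. donovani HU3 (4×10^5 parasites per 2×10^4 macrophages), then cultured with compound for 5 days at 37° C, 5% CO2. After fixation and permeabilization, parasite nuclei were stained with SYBR Green and counted by high-content imaging.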

[4] = tested on: Leishmania donovani axenic amastigote; experiment: In vitro assay for growth inhibition of Leishmania donovani axenic amastigote (Cell TiterGlo luminescence); details: Leishmania donovani, L. donovani axenic amastigotes in vitro; read-out: L. donovani amastigotes EC50
Method in brief: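 Axenic L. donovani amastigotes (9600/well) grown at 37 °C, 5% CO2 in supplemented RPMI 1640, pH 5.5, with compound added from DMSO. After two days, viability read by CellTiter-Glo luminescence against DMSO and control-compound wells.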

Compound | EC50 [1] | EC50 [2] | EC50 [3] | EC50 [4]
Cc1nc(C)c(C(=O)Nc2ccc(F)c(-n3cc4cc(NC(=O)OC(C)C)cnc4n3)c2)o1 [Compound 159, propan-2-yl N-{2-[5-(dimethyl-1,3-oxazole-5-amido)-2-fluorophenyl}-2H-pyrazolo[3,4-b]pyridin-5-yl}carbamate] | < 0.023 µM | 0.037 µM | 0.017 µM | 0.013 µM
O=C(Nc1ccc(F)c(-n2cc3cc(C4CCOCC4)cnc3n2)c1)N1CCC1 [Compound 160, N-{4-fluoro-3-[5-(oxan-4-yl)-2H-pyrazolo[3,4-b]pyridin-2-yl]phenyl}azetidine-1-carboxamide] | < 0.023 µM | 0.0051 µM | 0.0098 µM | 0.0043 µM
O=C(Nc1ccc(F)c(-n2cc3cc(N4CCCC4)cnc3n2)c1)N1CC(F)(F)C1 [Compound 161, 3,3-difluoro-N-{4-fluoro-3-[5-(pyrrolidin-1-yl)-2H-pyrazolo[3,4-b]pyridin-2-yl]phenyl}azetidine-1-carboxamide] | < 0.023 µM | 0.0098 µM | 0.0073 µM | 0.0077 µM
O=C(Nc1ccc(F)c(-n2cc3cc(CC(F)(F)F)cnc3n2)c1)N1CC[C@@H](F)C1 [Compound 162, (3R)-3-fluoro-N-{4-fluoro-3-[5-(2,2,2-trifluoroethyl)-2H-pyrazolo[3,4-b]pyridin-2-yl]phenyl}pyrrolidine-1-carboxamide] | < 0.023 µM | 0.0018 µM | 0.0045 µM | 0.007 µM
O=C(Nc1ccc(F)c(-n2cc3cc(N4CCCC4)cnc3n2)c1)N1CCC1 [Compound 163, N-{4-fluoro-3-[5-(pyrrolidin-1-yl)-2H-pyrazolo[3,4-b]pyridin-2-yl]phenyl}azetidine-1-carboxamide] | < 0.023 µM | 0.0027 µM | 0.0041 µM | 0.0058 µM
O=C(Nc1ccc(F)c(-n2cc3cc(CC(F)(F)F)cnc3n2)c1)N1CCC1 [Compound 164, N-{4-fluoro-3-[5-(2,2,2-trifluoroethyl)-2H-pyrazolo[3,4-b]pyridin-2-yl]phenyl}azetidine-1-carboxamide] | < 0.023 µM | 0.0017 µM | 0.01 µM | 0.006 µM
O=C(Nc1ccc(F)c(-n2cc3cc(C4CCOCC4)cnc3n2)c1)N1CC(F)(F)C1 [Compound 165, 3,3-difluoro-N-{4-fluoro-3-[5-(oxan-4-yl)-2H-pyrazolo[3,4-b]pyridin-2-yl]phenyl}azetidine-1-carboxamide] | < 0.023 µM | 0.04 µM | 0.01 µM | 0.01 µM
O=C(Nc1ccc(F)c(-n2cc3cc(CC(F)(F)F)cnc3n2)c1)N1CC(F)(F)C1 [Compound 166, 3,3-difluoro-N-{4-fluoro-3-[5-(2,2,2-trifluoroethyl)-2H-pyrazolo[3,4-b]pyridin-2-yl]phenyl}azetidine-1-carboxamide] | < 0.023 µM | 0.0017 µM | 0.0037 µM | 0.0025 µM
CN(C)c1cnc2nn(-c3cc(NC(=O)N4CC(F)C4)ccc3F)cc2c1 [Compound 167, N-{3-[5-(dimethylamino)-2H-pyrazolo[3,4-b]pyridin-2-yl]-4-fluorophenyl}-3-fluoroazetidine-1-carboxamide] | < 0.023 µM | 0.0022 µM | 0.0082 µM | 0.0029 µM
CC(C)OC(=O)Nc1cnc2nn(-c3cc(NC(=O)N4CC(F)C4)ccc3F)cc2c1 [Compound 168, Isopropyl (2-(2-fluoro-5-(3-fluoroazetidine-1-carboxamido)phenyl)-2H-pyrazolo[3,4-b]pyridin-5-yl)carbamate] | < 0.023 µM | 0.027 µM | 0.0082 µM | 0.0032 µM
Cc1nc(C)c(C(=O)Nc2ccc(F)c(-n3cc4cc(C5CCOCC5)cnc4n3)c2)o1 [Compound 169, N-{4-fluoro-3-[5-(oxan-4-yl)-2H-pyrazolo[3,4-b]pyridin-2-yl]phenyl}-2,4-dimethyl-1,3-oxazole-5-carboxamide] | < 0.023 µM | 0.014 µM | 0.03 µM | 0.01 µM
CN(C)c1cnc2nn(-c3cc(NC(=O)N4CCC4)ccc3F)cc2c1 [Compound 170, N-{3-[5-(dimethylamino)-2H-pyrazolo[3,4-b]pyridin-2-yl]-4-fluorophenyl}azetidine-1-carboxamide] | < 0.023 µM | 0.0046 µM | 0.011 µM | 0.008 µM
O=C(Nc1ccc(F)c(-n2cc3cc(N4CC5(COC5)C4)cnc3n2)c1)N1CC(F)C1 [Compound 171, 3-fluoro-N-[4-fluoro-3-(5-{2-oxa-6-azaspiro[3.3]heptan-6-yl}-2H-pyrazolo[3,4-b]pyridin-2-yl)phenyl}azetidine-1-carboxamide] | < 0.023 µM | 0.047 µM | 0.016 µM | 0.0095 µM
O=C(Nc1ccc(F)c(-n2cc3cc(N4C[C@@H]5C[C@H]4CO5)cnc3n2)c1)N1CC(F)C1 [Compound 172, 3-fluoro-N-(4-fluoro-3-{5-[(1S,4S)-2-oxa-5-azabicyclo[2.2.1]heptan-5-yl]-2H-pyrazolo[3,4-b]pyridin-2-yl]phenyl)azetidine-1-carboxamide] | < 0.023 µM | 0.033 µM | 0.011 µM | 0.0067 µM
CC(C)c1cnc2nn(-c3cc(NC(=O)CCC(F)(F)F)ccc3F)cc2c1 [Compound 173, 4,4,4-trifluoro-N-(4-fluoro-3-(5-isopropyl-2H-pyrazolo[3,4-b]pyridin-2-yl)phenyl)butanamide] | 0.12 µM | 0.14 µM | 0.5 µM | 0.41 µM
CC(C)c1cnc2nn(-c3cc(NC(=O)OCCC(F)(F)F)ccc3F)cc2c1 [Compound 174, 3,3,3-trifluoropropyl N-{4-fluoro-3-[5-(propan-2-yl)-2H-pyrazolo[3,4-b]pyridin-2-yl]phenyl}carbamate] | 1 µM | 0.72 µM | 2.7 µM | 2 µM
Cc1nc(C)c(C(=O)Nc2ccc(F)c(-n3cc4cc(CC(F)(F)F)cnc4n3)c2)o1 [Compound 175, N-{4-fluoro-3-[5-(2,2,2-trifluoroethyl)-2H-pyrazolo[3,4-b]pyridin-2-yl]phenyl}-2,4-dimethyl-1,3-oxazole-5-carboxamide] | < 0.023 µM | 0.0049 µM | 0.0081 µM | 0.024 µM
CC(C)c1cnc2nn(-c3cc(NC(=O)N4CC[C@@H](F)C4)ccc3F)cc2c1 [Compound 195, (3R)-3-fluoro-N-{4-fluoro-3-[5-(propan-2-yl)-2H-pyrazolo[3,4-b]pyridin-2-yl]phenyl}pyrrolidine-1-carboxamide] | < 0.023 µM | 0.004 µM | 0.0064 µM | 0.01 µM
CC(C)c1cnc2nn(-c3cc(NC(=O)c4ccco4)ccc3F)cc2c1 [Compound 196, N-{4-fluoro-3-[5-(propan-2-yl)-2H-pyrazolo[3,4-b]pyridin-2-yl]phenyl}furan-2-carboxamide] | < 0.023 µM | 0.012 µM | 27 µM | 0.076 µM
O=C(Nc1ccc(F)c(-n2cc3cc(N4CC5CCC4CO5)cnc3n2)c1)N1CC(F)C1 (centres unmarked) [Compound 197, 3-fluoro-N-[4-fluoro-3-(5-{2-oxa-5-azabicyclo[2.2.2]octan-5-yl}-2H-pyrazolo[3,4-b]pyridin-2-yl)phenyl}azetidine-1-carboxamide] | 0.005 µM | 0.037 µM | 0.013 µM | 0.199 µM
